# Like-named read-outs stand apart in the source and are kept apart here.
# Experiments:
# [1] = system: SK-MEL-188 melanoma cell line; assay: Sulforhodamine B (SRB) cytotoxicity assay, SK-MEL-188; format: cell-based; details: Homo sapiens, 48 h exposure, diastereomeric mixtures, value ± standard error, read-out: IC50 ± SEM SK-MEL-188 (converted)
# Procedure: (§1) Cytotoxicity of these newly synthesized compounds was examined in two human melanoma cell lines (SK-MEL-188 and WM-164) and in a fibroblast cell line. Activity on fibroblast cells was used as a control to determine the selectivity of these compounds against melanoma. Standard sulforhodamine B (SRB) assay was used. Cells were exposed to a wide range of concentrations for 48 h in round-bottom 96-well plates. Cells were fixed with 10% trichloroacetic acid and washed five times with water. After cells were air-dried overnight and stained with SRB solution, total proteins were measured at 560 nm with a plate reader. IC50 (i.e., concentration which inhibited cell growth by 50% of DMSO-treated controls) values were obtained by nonlinear regression analysis with GraphPad Prism (GraphPad Software, San Diego, Calif.).
# (§2) The ability of thiazolidine derivatives to inhibit the growth of two melanoma cancer cell lines and fibroblast cells is summarized in Table 1. […] At this early stage, all compounds were used as a diastereomeric mixture if they contain chiral centers in order to select the most promising compounds for further development.
# [2] = system: WM-164 melanoma cell line; assay: Sulforhodamine B (SRB) cytotoxicity assay, WM-164; format: cell-based; details: Homo sapiens, WM164, 48 h exposure, diastereomeric mixtures, value ± standard error, read-out: IC50 ± SEM WM-164 (converted)
# Procedure: as §1, §2
# fibroblast cell line = assay: Sulforhodamine B (SRB) cytotoxicity assay, fibroblast control; format: cell-based; details: 48 h exposure, control for selectivity, value ± standard error, read-out: IC50 ± SEM Fibroblast (converted)
# Procedure: as §1, §2
# melanoma cells = assay: SRB cytotoxicity assay, statements not tied to one cell line; format: cell-based, human; details: for potency/activity in words: melanoma cells and fibroblast cells; for IC50: Homo sapiens; for selectivity in words: melanoma versus fibroblast cells
# Procedure: as §1, §2
# [3] = summary over the cell lines, read-out: IC50 in the in vitro assay (cell line not given)
smiles,measurement,setting,value
"CCCCCCCCCCCCNC(=O)[C@@H]1CSC(c2cc(OC)c(OC)c(OC)c2)N1 (stereo partly drawn) [Compound 303, (4R)—N-dodecyl-2-(3,4,5-trimethoxyphenyl)thiazolidine-4-carboxamide]",IC50,[1],2.1 µM
same,IC50,[2],2.4 µM
same,IC50,fibroblast cell line,2.4 µM
"CCCCCCCCNC(=O)[C@@H]1CSC(c2cc(OC)c(OC)c(OC)c2)N1 (stereo partly drawn) [Compound 301, (4R)-2-(3,4,5-trimethoxyphenyl)-N-octylthiazolidine-4-carboxamide]",IC50,[1],17.1 ± 0.6 µM
same,IC50,[2],19.6 ± 0.9 µM
same,IC50,fibroblast cell line,20.8 ± 10.4 µM
"CCCCCCCCCCNC(=O)[C@@H]1CSC(c2ccc(OC)c(OC)c2)N1 (stereo partly drawn) [Compound 306, (4R)—N-decyl-2-(3,4-dimethoxyphenyl)thiazolidine-4-carboxamide]",IC50,[1],11.9 µM
same,IC50,[2],6.1 µM
same,IC50,fibroblast cell line,6.3 µM
same,potency/activity in words,melanoma cells,low potency
"CCCCCCCCCCCCCCCNC(=O)[C@@H]1CSC(c2ccc(NC(C)=O)cc2)N1 (stereo partly drawn) [Compound 316, (4R)-2-(4-acetamidophenyl)-N-pentadecylthiazolidine-4-carboxamide]",IC50,[1],1.6 µM
same,IC50,[2],1 µM
same,IC50,fibroblast cell line,14.3 µM
"CCCCCCCCCCCCCCNC(=O)[C@@H]1CSC(c2ccccc2)=N1 [Compound 328, (R)-4,5-dihydro-2-phenyl-N-tetradecylthiazole-4-carboxamide]",IC50,[1],42.1 ± 5 µM
same,IC50,[2],> 50 µM
same,IC50,fibroblast cell line,> 50 µM
same,IC50,melanoma cells; [3],> 20 µM
"CCCCCCCCCCCCCCCCNC(=O)[C@@H]1CSC(c2ccc3c(c2)OCO3)N1 (stereo partly drawn) [Compound 313, (4R)-2-(benzo[d][1,3]dioxol-5-yl)-N-hexadecylthiazolidine-4-carboxamide]",IC50,[1],1.6 µM
same,IC50,[2],1.8 µM
same,IC50,fibroblast cell line,5.7 µM
"CCCCCCCCCCCCCCCCNC(=O)[C@@H]1CSC(c2ccc(NC(C)=O)cc2)N1 (stereo partly drawn) [Compound 317, (4R)-2-(4-acetamidophenyl)-N-hexadecylthiazolidine-4-carboxamide]",IC50,[1],2.1 µM
same,IC50,[2],0.6 µM
same,IC50,fibroblast cell line,19.1 µM
same,IC50,"melanoma cells; melanoma cells, lowest value stated in text, read-out: IC50 for melanoma cells (as low as)",0.6 µM
"CON(C)C(=O)[C@@H]1CSC(c2ccccc2)N1 (stereo partly drawn) [Compound 323, (4R)—N-methoxy-N-methyl-2-phenylthiazolidine-4-carboxamide]",IC50,[1],> 100 µM
same,IC50,[2],> 100 µM
same,IC50,fibroblast cell line,> 100 µM
same,potency/activity in words,melanoma cells,completely abolished potency
"CCCCCCCCCCCCNC(=O)[C@@H]1CSC(c2ccc(NC(C)=O)cc2)N1 (stereo partly drawn) [Compound 314, (4R)-2-(4-acetamidophenyl)-N-dodecylthiazolidine-4-carboxamide]",IC50,[1],2.4 µM
same,IC50,[2],1.2 µM
same,IC50,fibroblast cell line,3.5 µM
"CCCCCCCCCCCCCCNC(=O)[C@@H]1CSC(c2ccccc2)N1 (stereo partly drawn) [Compound 321, (4R)-2-phenyl-N-tetradecylthiazolidine-4-carboxamide]",IC50,[1],1.9 µM
same,IC50,[2],0.6 µM
same,IC50,fibroblast cell line,2.8 µM
same,selectivity in words,melanoma cells,loss of selectivity
"CCCCCCCCCCCCNC(=O)[C@@H]1CSC(c2ccc(N)cc2)N1 (stereo partly drawn) [Compound 326, (4R)-2-(4-aminophenyl)-N-dodecylthiazolidine-4-carboxamide]",IC50,[1],2.2 µM
same,IC50,[2],1.4 µM
same,IC50,fibroblast cell line,4.1 µM
"CCCCCCCCCCCCCCNC(=O)[C@@H]1CSC(c2ccc3c(c2)OCO3)N1 (stereo partly drawn) [Compound 312, (4R)-2-(benzo[d][1,3]dioxol-5-yl)-N-tetradecylthiazolidine-4-carboxamide]",IC50,[1],1.6 µM
same,IC50,[2],1 µM
same,IC50,fibroblast cell line,4.2 µM
"CCCCCCCCCCCCCCCCNC(=O)[C@@H]1CSC(c2ccc(OC)c(OC)c2)N1 (stereo partly drawn) [Compound 309, (4R)—N-hexadecyl-2-(3,4-dimethoxyphenyl)thiazolidine-4-carboxamide]",IC50,[1],1.5 µM
same,IC50,[2],0.5 µM
same,IC50,fibroblast cell line,2.1 µM
"CCCCCCCCCCCCCCNC(=O)[C@@H]1CSC(c2cc(OC)c(OC)c(OC)c2)N1 (stereo partly drawn) [Compound 304, (4R)-2-(3,4,5-trimethoxyphenyl)-N-tetradecylthiazolidine-4-carboxamide]",IC50,[1],2 µM
same,IC50,[2],1.6 µM
same,IC50,fibroblast cell line,2.6 µM
"CCCCCCCCCCCCCCCCNC(=O)[C@@H]1CSC(c2ccc(N)cc2)N1 (stereo partly drawn) [Compound 327, (4R)-2-(4-aminophenyl)-N-hexadecylthiazolidine-4-carboxamide]",IC50,[1],2.3 µM
same,IC50,[2],1.4 µM
same,IC50,fibroblast cell line,7.4 µM
"CCCCCCCCCCNC(=O)[C@@H]1CSC(c2cc(OC)c(OC)c(OC)c2)N1 (stereo partly drawn) [Compound 302, (4R)—N-decyl-2-(3,4,5-trimethoxyphenyl)thiazolidine-4-carboxamide]",IC50,[1],14.5 µM
same,IC50,[2],2.1 µM
same,IC50,fibroblast cell line,6.7 µM
same,potency/activity in words,melanoma cells,low potency
"CCCCCCCCCCCCNC(=O)[C@@H]1CSC(c2ccc3c(c2)OCO3)N1 (stereo partly drawn) [Compound 311, (4R)-2-(benzo[d][1,3]dioxol-5-yl)-N-dodecylthiazolidine-4-carboxamide]",IC50,[1],3.5 µM
same,IC50,[2],2.5 µM
same,IC50,fibroblast cell line,5.2 µM
"CCCCCCCCCCCCNC(=O)[C@@H]1CSC(c2ccc(OC)c(OC)c2)N1 (stereo partly drawn) [Compound 307, (4R)—N-dodecyl-2-(3,4-dimethoxyphenyl)thiazolidine-4-carboxamide]",IC50,[1],2.9 µM
same,IC50,[2],1.6 µM
same,IC50,fibroblast cell line,4.5 µM
"CCCCCCCCCCCCCCNC(=O)[C@@H]1CSC(c2ccc(OC)c(OC)c2)N1 (stereo partly drawn) [Compound 308, (4R)-2-(3,4-dimethoxyphenyl)-N-tetradecylthiazolidine-4-carboxamide]",IC50,[1],1.5 µM
same,IC50,[2],0.8 µM
same,IC50,fibroblast cell line,2.8 µM
"CCCCCCCCCCCCCCCCCNC(=O)[C@@H]1CSC(c2ccc(NC(C)=O)cc2)N1 (stereo partly drawn) [Compound 318, (4R)-2-(4-acetamidophenyl)-N-heptadecylthiazolidine-4-carboxamide]",IC50,[1],8.5 µM
same,IC50,[2],2.4 µM
same,IC50,fibroblast cell line,35.8 µM
"CCCCCCCCCCCCCCCCNC(=O)[C@@H]1CSC(c2ccccc2)N1 (stereo partly drawn) [Compound 322, (4R)—N-hexadecyl-2-phenylthiazolidine-4-carboxamide]",IC50,[1],1.9 µM
same,IC50,[2],0.7 µM
same,IC50,fibroblast cell line,2.2 µM
same,selectivity in words,melanoma cells,loss of selectivity
"CCCCCCCCC/C=C/CCCCCCCNC(=O)[C@@H]1CSC(c2ccc(NC(C)=O)cc2)N1 (stereo partly drawn) [Compound 320E, (4R)-2-(4-acetamidophenyl)-N-((E)-octadec-8-enyl)thiazolidine-4-carboxamide]",IC50,[1],3.3 µM
same,IC50,[2],1.4 µM
same,IC50,fibroblast cell line,18 µM
same,potency/activity in words,melanoma cells,restored potency dramatically
"CCCCCCCCCCCCCCCCNC(=O)[C@@H]1CSC(c2ccccc2NC(C)=O)N1C (stereo partly drawn) [Compound 330, (4R)-2-(2-acetamidophenyl)-N-hexadecyl-3-methylthiazolidine-4-carboxamide]",IC50,[1],29.1 ± 1 µM
same,IC50,[2],> 100 µM
same,IC50,fibroblast cell line,> 100 µM
same,IC50,melanoma cells; [3],> 20 µM
"CCCCCCCCCCCCCCNC(=O)[C@H]1CSC(c2cc(OC)c(OC)c(OC)c2)N1 (stereo partly drawn) [Compound 324, (4S)-2-(3,4,5-trimethoxyphenyl)-N-tetradecylthiazolidine-4-carboxamide]",IC50,[1],2.6 ± 0.2 µM
same,IC50,[2],1.1 ± 0.1 µM
same,IC50,fibroblast cell line,4.1 ± 0.7 µM
"CCCCCCCCCCCCCCNC(=O)[C@@H]1CSC(c2ccc(NC(C)=O)cc2)N1 (stereo partly drawn) [Compound 315, (4R)-2-(4-acetamidophenyl)-N-tetradecylthiazolidine-4-carboxamide]",IC50,[1],2.3 µM
same,IC50,[2],0.6 µM
same,IC50,fibroblast cell line,3.6 µM
"CCCCCCCCCCCCCCNC(=O)[C@@H]1CSC(c2ccc(OC)c(OC)c2)=N1 [Compound 329, (R)-4,5-dihydro-2-(3,4-dimethoxyphenyl)-N-tetradecylthiazole-4-carboxamide]",IC50,[1],19.1 µM
same,IC50,[2],42.9 µM
same,IC50,fibroblast cell line,> 50 µM
same,IC50,melanoma cells; [3],> 20 µM
"CCCCCCCCCCCCCCCCNC(=O)[C@@H]1CSC(c2cc(OC)c(OC)c(OC)c2)N1 (stereo partly drawn) [Compound 305, (4R)—N-hexadecyl-2-(3,4,5-trimethoxyphenyl)thiazolidine-4-carboxamide]",IC50,[1],1.8 µM
same,IC50,[2],0.7 µM
same,IC50,fibroblast cell line,2.4 µM
"CN(C)/N=N/c1[nH]cnc1C(N)=O [DTIC, dacarbazine, reference compound]",IC50,[1],> 100 µM
same,IC50,[2],> 100 µM
same,IC50,melanoma cells; [3],> 100 µM
"CCCCCCCCC/C=C\CCCCCCCNC(=O)[C@@H]1CSC(c2ccc(NC(C)=O)cc2)N1 (stereo partly drawn) [Compound 320Z, (4R)-2-(4-acetamidophenyl)-N-((Z)-octadec-8-enyl)thiazolidine-4-carboxamide]",IC50,[1],1.4 µM
same,IC50,[2],1 µM
same,IC50,fibroblast cell line,10.6 µM
same,potency/activity in words,melanoma cells,restored potency dramatically
"CCCCCCCCCCNC(=O)[C@@H]1CSC(c2ccc3c(c2)OCO3)N1 (stereo partly drawn) [Compound 310, (4R)-2-(benzo[d][1,3]dioxol-5-yl)-N-decylthiazolidine-4-carboxamide]",IC50,[1],6.6 µM
same,IC50,[2],4.5 µM
same,IC50,fibroblast cell line,8.2 µM
same,potency/activity in words,melanoma cells,low potency
"CCCCCCCCCCCCCCCCNC(=O)[C@H]1CSC(c2ccc(NC(C)=O)cc2)N1 (stereo partly drawn) [Compound 325, (4S)-2-(4-acetamidophenyl)-N-hexadecylthiazolidine-4-carboxamide]",IC50,[1],3.2 µM
same,IC50,[2],1.4 µM
same,IC50,fibroblast cell line,22.6 µM

# Reference: patent publication US20080255213A1, “THIAZOLIDINONE AMIDES, THIAZOLIDINE CARBOXYLIC ACID AMIDES, AND SERINE AMIDES, INCLUDING POLYAMINE CONJUGATES THEREOF, AS SELECTIVE ANTI-CANCER AGENTS” (University of Tennessee Research Foundation, priority 2007, published 2008)
